Consider `N#CCS(=O)(=O)c1ccccc1` [phenylsulfonylacetonitrile], for which the melting point was found to be 112 °C.
To `NCc1cccc2c(Br)cccc12` [1-(5-bromonaphthalen-1-yl)methanamine] belongs 139 °C.
For `NC(=O)c1c(F)c(F)c(F)c(F)c1F` [2,3,4,5,6-pentafluorobenzamide] the value was 148 °C; for `CN(C)c1ccc(/C=C/C=O)cc1` [(2E)-3-[4-(Dimethylamino)phenyl]acrylaldehyde], 135 °C.
For `N#Cc1ccc2c(c1)OCO2` [Piperonylonitrile] the value was 94 °C.
With `SCCCS` [1,3-propanedithiol], the melting point was -79 °C.
For `CC1(C)CC(=O)CC(=O)C1` [5,5-Dimethylcyclohexane-1,3-dione] the value was 148 °C.
With `c1cc(N2CCNCC2)ccn1` [1-(4-pyridyl)piperazine], the melting point turned out to be 139 °C.
`CC(=O)N1CCN(c2ccc(OCC3COC(Cn4ccnc4)(c4ccc(Cl)cc4Cl)O3)cc2)CC1` (centres undefined): the melting point turned out to be 146 °C.
To `O=[N+]([O-])c1c(F)cc(F)cc1F` [1,3,5-trifluoro-2-nitrobenzene] belongs 4 °C; to `Cc1ccn(C(N)=O)n1` [3-methyl-1h-pyrazole-1-carboxamide], 125 °C.
For `CCC1(O)CCC(c2ccccc2)c2ccccc21` (centres undefined) [1-ethyl-4-phenyl-1,2,3,4-tetrahydronaphthalen-1-ol] the value was 112 °C; for `CCC(C)(C)Cl` [2-Chloro-2-methylbutane], -73 °C; for `COc1ccc2cc[nH]c2c1` [6-methoxyindole], 92 °C.
In the case of `c1ccc2cc3cc4ccccc4cc3cc2c1` [naphthacene], the melting point turned out to be 357 °C.
For `COc1ccc2cc([N+](=O)[O-])ccc2c1C(=O)O` [2-methoxy-6-nitronaphthalene-1-carboxylic acid] the value was 187 °C; for `OB(O)c1cc2ccccc2nc1F` [2-fluoroquinoline-3-boronic acid], 92 °C; for `CCCCC(CC)C(=O)O` (centres undefined) [2-ethylhexanoic acid], -59 °C.
Compound `N#Cc1ccc(O)cc1` [4-Hydroxybenzonitrile] showed a melting point of 112 °C.
As to `CC(=O)OC1COC(C#N)C(OC(C)=O)C1OC(C)=O` (centres undefined), the melting point stood at 134 °C.
For `Cc1ccc(N=C=O)cc1N=C=O` [toluene-2,4-diisocyanate] the value was 21 °C.
With `CC(C)Cc1ccc(C(C)C(=O)O)cc1` (stereo not drawn) [4-isobutyl-alpha-methylphenylacetic acid], the melting point turned out to be 77 °C.
Consider `CSc1ccccc1C(=O)O` [2-(methylthio)benzoic acid], for which the melting point worked out at 167 °C.
For `Oc1ccc(Br)cc1-c1ccno1` [4-bromo-2-(5-isoxazolyl)phenol] the value was 211 °C; for `COc1ccc(C=CC(=O)c2ccccc2)cc1` [Chalcone, 4-methoxy-], 76 °C.
For the compound `Cc1ccccc1OCC(=O)O` [2-methylphenoxyacetic acid], the melting point was determined as 154 °C.
For `O=C(O)CCCCCCCCCCCCCCCCCCC(=O)O` [1,18-octadecanedicarboxylic acid] the value was 127 °C.
To `O=[N+]([O-])c1ccc(/N=N/c2c(O)ccc3ccccc23)cc1` [1-[(E)-(4-Nitrophenyl)diazenyl]-2-naphthol] belongs 250 °C; to `O=C1OC(c2ccc(O)cc2)(c2ccc(O)cc2)c2ccccc21` [phenolphthalein], 260 °C.
For `O=C1CCCCCCCCCCC1` [cyclododecanone] the value was 61 °C.
Regarding `COc1cccc(C(C)=O)c1` [3'-methoxyacetophenone], the melting point is -7 °C.
As to `CCCCCCCCCCCCCC=O` [tetradecyl_aldehyde], the melting point turned out to be 24 °C.
As to `CC(=O)c1cccc([N+](=O)[O-])c1` [3'-nitroacetophenone], the melting point worked out at 78 °C.
To `CCc1c(C)[nH]c2ccc(N(C)C)cc12` [Medmain] belongs 100 °C; to `CC(C)NCC(O)COc1cccc2ccccc12` (centres undefined) [propranolol], 162 °C.
For `N#CCS(=O)(=O)c1ccc(C(F)(F)F)cc1` [[4-(trifluoromethyl)phenylsulfonyl]acetonitrile] the value was 144 °C; for `Sc1nnc2ccccn12` [1,2,4-triazolo[4,3-a]pyridine-3-thiol], 210 °C; for `Nc1cc(Cl)ccc1[N+](=O)[O-]` [5-chloro-2-nitroaniline], 126 °C.
Regarding `C=CCN` [allylamine], the melting point was -88 °C.
`CCCC(=O)CCC` [4-heptanone] registered a melting point of -33 °C.
For `CCCCOC(=O)c1ccc(O)cc1` [Butyl 4-hydroxybenzoate] the value was 68.5 °C; for `Nc1nc(=O)c2nc(CNc3ccc(C(=O)N[C@@H](CCC(=O)O)C(=O)O)cc3)cnc2[nH]1` [Folic Acid], 250 °C.
In turn, `NC(=O)OCC(COC(N)=O)c1ccccc1` [felbamate] registered a melting point of 151 °C.
For `Cc1cccc(O)c1` [m-cresol] the value was 12 °C; for `CC(=O)OCC1OC(C#N)=CC(OC(C)=O)C1OC(C)=O` (centres undefined), 114 °C; for `CC(=O)O/C(=C\C=C(\OC(C)=O)c1ccccc1)c1ccccc1` [(1E,3Z)-4-(acetyloxy)-1,4-diphenylbuta-1,3-dien-1-yl acetate], 126 °C.
`CCN(Cc1ccc(Cl)nc1)/C(=C/[N+](=O)[O-])NC` returned a melting point of 72 °C.
For `C/C=C\Br` [cis-1-bromo-1-propene] the value was -113 °C; for `CCOC(=O)Cc1c(C)n(C(=O)c2ccc(Cl)cc2)c2ccc(OC)cc12` [Indomethacin ethyl ester], 96 °C; for `Cc1ncc([N+](=O)[O-])n1C` [Dimetridazole], 140 °C.
For `c1ccc2c(c1)oc1ccccc12` [dibenzofuran] the value was 81 °C; for `O=Cc1cc(Br)cc(Br)c1` [3,5-dibromobenzaldehyde], 91 °C; for `NC=O` [formamide], 2 °C.
To `Nc1cccc(Cl)c1` [m-chloroaniline] belongs -10 °C.
In turn, `C=C` [ethylene] gave a melting point of -169 °C.
Turning to `Cc1ccc(C)c(OCCCC(C)(C)C(=O)O)c1` [gemfibrozil], the melting point stood at 61 °C.
For `Cc1cc2nc3c(=O)[nH]c(=O)nc-3n(C[C@H](O)[C@H](O)[C@H](O)CO)c2cc1C` [Riboflavin] the value was 280 °C; for `C=CS(=O)(=O)c1ccccc1` [phenyl vinyl sulfone], 69 °C; for `CCS(=O)(=O)c1ccc(B(O)O)cc1` [4-(ethylsulfonyl)benzeneboronic acid], 137 °C.
Compound `N#CCCCCC#N` [adiponitrile] gave a melting point of 2 °C.
For `CCC/C=C/CCC` [trans-4-octene] the value was -94 °C.
For `CCOC(=O)c1cccc(C(=O)O)c1` [isophthalic acid, monoethyl ester] the value was 109 °C; for `Cc1cc(C=O)cc(C)c1O` [4-hydroxy-3,5-dimethylbenzaldehyde], 114 °C; for `CCC(C)=O` [2-butanone], -87 °C.

The values are drawn from the Bradley open melting point set (2014).
